The nature of this data set: Human HepG2 cell viability assay in 384 well format. The data set is classed as toxicity, cell-based. The following applies: HepG2 cells, read-out: Inhibition. Further details: dose 125 nL, time 70.5 hour; cytotoxicity at 70.5 h: concentration not given beside the values.
For `CCc1nccn1C1CCCN(C(=O)c2ccc3[nH]c(=O)[nH]c3c2)C1` (centres undefined), the cytotoxicity at 70.5 h is 29%.
On to `O=C(NCc1nnc2n1CCCC2)c1cn(-c2ccccc2)nn1`, for which the cytotoxicity at 70.5 h is -4.64%.
`CCc1nnc(CSc2ccccn2)o1`: the cytotoxicity at 70.5 h was -9.38%.
With `CN1CCN(C[C@@H]2OC[C@H]3CN(Cc4ccsc4)CC[C@H]32)CC1`, the cytotoxicity at 70.5 h is -4.59%.
For `Cc1ccc(C(=O)Nc2ccc(OC3CCN(C)CC3)cc2)c(C)c1`, the cytotoxicity at 70.5 h was -5.87%.
Then `CCOc1ccc(CC(CNC(=O)c2sccc2C)C(N)=O)cc1` (centres undefined), with -1.61%; and `N#CCCN(CCC#N)C(=O)CN(C1CC1)C1CCc2ccccc21` (centres undefined), with -2.92%; and `Cn1ccnc1CN1CCCN(C(=O)c2ccc(Cl)o2)CC1`, with -8.18%.
On to `O=C(c1ccccc1)N1CCN(CC(O)c2ccc(F)cc2)CC1` (centres undefined), for which the cytotoxicity at 70.5 h was -11%.
Turning to `O=C(O)CCCN1C[C@@H](c2ccccc2F)[C@@]2(CCCCC(=O)N2)C1`, the cytotoxicity at 70.5 h is -2.59%.
Regarding `CCc1nc(CC(=O)N2CCC(C(=O)N3CCCCC3)CC2)cs1`, the cytotoxicity at 70.5 h is -4.54%.
With `COCCCNC(=O)c1cc(C(C)C)nc(N2CCCC2)n1`, the cytotoxicity at 70.5 h is -10.1%.
The same measure for `Cn1cc(-c2cnc(N3CCCC3)nc2)cc1C(=O)O`: 1.36%; for `Cc1noc([C@@H]2C[C@H](NC(=O)NC(C)C)CN2C)n1`: -0.832%; for `Cc1ccc(S(=O)(=O)NCCCN2CCC(O)CC2)cc1Cl`: 4.78%.
On to `CC(C)c1nccn1C(C)C(=O)NC1Cc2ccccc2C1` (centres undefined), for which the cytotoxicity at 70.5 h is -1.16%.
For `CCOCC(=O)Nc1cc(C)cnc1OC`, the cytotoxicity at 70.5 h was -3.98%.
As to `Cc1nc(CN(C)C2CCN(CCC(=O)N3CCOCC3)C2)no1` (centres undefined), the cytotoxicity at 70.5 h came to 15.9%.
The same measure for `CCc1ccc(CN2CC[C@H]3C[C@H](c4nnc(C)[nH]4)O[C@@H]3C2)o1`: -1.93%.
For `O=C(c1ccno1)N1CC[C@@H]2CN(C3CCOCC3)CCO[C@@H]2C1`, the cytotoxicity at 70.5 h is -5.94%.
For `CS(=O)(=O)N1CCOC2(CCCN(c3ncc(F)cn3)C2)C1` (centres undefined), the cytotoxicity at 70.5 h was -2.76%.
Then `Cc1cc(CN2CCC(CNC(=O)c3ccc(O)c(Cl)c3)C2)[nH]n1` (centres undefined), with -4.96%; and `COc1ccccc1OC1CN(C(=O)c2ccc(C(C)=O)s2)C1`, with -10.9%.
Regarding `O=S(=O)(N1CCCC1)N1CCN(CC2CCCO2)CC1` (centres undefined), the cytotoxicity at 70.5 h was -3.59%.
With `c1cc2nc(C3CCN(CC4CC4)CC3)nn2cc1N1CCCC1`, the cytotoxicity at 70.5 h is -4.49%.
Consider `CN([C@@H]1CC[C@@H](N2CCOCC2)[C@@H]1O)S(=O)(=O)c1ccccc1`, for which the cytotoxicity at 70.5 h is -10.3%.
The same measure for `CO[C@H]1CN(C(=O)OC(C)(C)C)CC1NCc1cc[nH]c1` (some centres undefined): -20.4%; for `O=C(NCCNc1ncccn1)C1CCN(C(=O)NC2CC2)CC1`: -4.22%; for `NC[C@H]1CC[C@H](C(NC(=O)CC2CCCCC2)c2ccccn2)CC1` (some centres undefined): -6.94%.
The same measure for `COc1ccc(CCC(C)Nc2cccc(SC)c2)cc1` (centres undefined): 23.6%; for `CCOCC1CN(C(=O)c2cnccn2)Cc2cnn(CC3CC3)c21` (centres undefined): -10.4%; for `Cc1cccc(CN2C(=O)CCC23CCN(c2ncc(F)cn2)CC3)n1`: -5.55%.
In the case of `COc1ccc(C)cc1C(C)NC(=O)NCCCn1cncn1` (centres undefined), the cytotoxicity at 70.5 h is -10.9%.
Turning to `CCCc1cc(N2CCC(NCC3(O)CCCCC3)CC2)nc(C)n1`, the cytotoxicity at 70.5 h is -8.99%.
With `Cc1nc2cc(F)ccc2cc1C(=O)N1CCN(CC(C)O)CC1` (centres undefined), the cytotoxicity at 70.5 h is -9.69%.
Take `Fc1ccccc1Cn1c(C2CCNCC2)cc2cccnc21`: the cytotoxicity at 70.5 h was -4.77%.
Consider `Cc1cc(C(=O)NCCN2CCN(S(C)(=O)=O)CC2)no1`, for which the cytotoxicity at 70.5 h was -10.9%.
Consider `O=C(CCCC(=O)NCc1cccc(Br)c1)NCCN1CCCC1`, for which the cytotoxicity at 70.5 h was 1.2%.
Then `O=C1NCCN1C1CCCN(Cc2nnc(-c3ccc(F)cc3)o2)C1` (centres undefined), with -21.9%; and `CC(C)Nc1ncnc2c1CCN(C(=O)Cc1cccs1)CC2`, with -7.55%.
For `CCN1CCCC1CN(Cc1ccoc1)CC1CCN(CCOC)CC1` (centres undefined), the cytotoxicity at 70.5 h was -3.24%.
Then `CC(C)C(C)NC(=O)CCN1C(=O)CCc2cc(F)ccc21` (centres undefined), with 19.4%; and `Nc1ncc2c(n1)CN(C1CCCC1)C2=O`, with -7.28%.
For the compound `O=C1CC(c2ccncc2)c2c(c(C(=O)O)cn2-c2ccc(F)cc2)N1` (centres undefined), the cytotoxicity at 70.5 h is -6.2%.
Then `COC(=O)N1CCCCC1C(=O)N1CCN(c2cccnc2)CC1` (centres undefined), with 6.34%; and `CCOc1cc(CN(C)CC(C)(C)O)ccc1OC(F)F`, with 4.76%.
As to `O=C1CC(C(=O)Nc2nnc(-c3ccoc3)[nH]2)c2ccccc2N1` (centres undefined), the cytotoxicity at 70.5 h was determined as 0.202%.
For `CCN1CCC(CNC(=O)C2(c3cccc(C)c3)CC2)C1` (centres undefined), the cytotoxicity at 70.5 h came out at 0.0668%.
In the case of `CNC(=O)[C@H]1C[C@@H]2CN(S(=O)(=O)c3ccccc3)C[C@@H]2N1C`, the cytotoxicity at 70.5 h is -8.21%.
For the compound `Cn1cc(CNC2CCc3c(ccc(=O)n3Cc3ccncc3)C2)cn1` (centres undefined), the cytotoxicity at 70.5 h is -15.3%.
For `COc1cc(NC(=O)c2ccc(C)cc2C)c(C(=O)N(C)C)cc1OC`, the cytotoxicity at 70.5 h was 4.46%.
Take `COCCOc1ncccc1CNC(=O)N1CCCCCC1`: the cytotoxicity at 70.5 h was -12.7%.
Consider `NC(=O)CCSCc1cc(Br)cc2cccnc12`, for which the cytotoxicity at 70.5 h came to 10.9%.
The same measure for `CC(C)CNC(=O)c1ccc2nnc(C3CCN(S(C)(=O)=O)C3)n2c1` (centres undefined): -19.7%.
In the case of `O=C([C@H]1CCCO1)N1Cc2nccn2CC(COc2cccnc2)C1` (some centres undefined), the cytotoxicity at 70.5 h is -4.93%.
`COCCNC(=O)C1CN(C(N)=O)Cc2ccnn2C1` (centres undefined): the cytotoxicity at 70.5 h was -8.89%.
`Cc1ncc(CNC(=O)CCc2cccs2)c(C2CCCN2C)n1` (centres undefined): the cytotoxicity at 70.5 h is -4.28%.
On to `CC(C)n1cnc(-c2nc(C(=O)N3CCN(C)CC3)c3ccccn23)c1`, for which the cytotoxicity at 70.5 h was -2.41%.
Consider `OCC1CCCN1c1cc(NCc2cccnc2)ncn1` (centres undefined), for which the cytotoxicity at 70.5 h was -1.41%.
As for `Cc1ccc(NC2CCN(C(=O)C(C(C)C)n3cncn3)CC2)nn1` (centres undefined), the cytotoxicity at 70.5 h was -4.96%.
For `Cc1nnsc1C(=O)NCC1CCN(c2ccccn2)CC1`, the cytotoxicity at 70.5 h was -8.36%.
Consider `COCC(=O)NCC(Cc1cccc(F)c1)n1cccc1` (centres undefined), for which the cytotoxicity at 70.5 h amounted to 0.782%.
The same measure for `Cc1nc(C)n(CC2CN(CCOc3ccccc3F)CCO2)n1` (centres undefined): -10.8%; for `c1ccc(-c2cnc(CNC3CCCN(c4cccnn4)C3)o2)cc1` (centres undefined): -4.5%; for `Cc1cc(CN2CCN(C(=O)NCc3nc(C)cs3)CC2)on1`: -11.7%.
Take `CN(C)CCN(C)C1CCN(C(C(=O)O)c2ccc(F)c(Cl)c2)CC1` (centres undefined): the cytotoxicity at 70.5 h amounted to 5.36%.
As for `COCCN1CCN(CC2(O)CCCCC2)CC1`, the cytotoxicity at 70.5 h was -0.488%.
The same measure for `CS(=O)(=O)N1CCC2(CCCN(CCCc3ccccc3)C2=O)C1` (centres undefined): -6.93%; for `CSCCc1n[nH]c2c1CN(S(=O)(=O)c1c(C)nn(C)c1C)CC2`: 17.2%; for `C=C/C=c1\c(=C/C)oc2c(NCc3ccccc3)nc(CC)nc12`: 11.2%.
The same measure for `Cc1nc[nH]c1CNC1CC(=O)N(CCc2cccc(Cl)c2)C1` (centres undefined): -2.03%; for `Cc1ncc(C(=O)NCCNC(=O)Cc2cccc(F)c2)s1`: -6.72%.
For `COCCC(=O)NCc1cccnc1-n1cnc2ccccc21`, the cytotoxicity at 70.5 h worked out at 6.94%.
As to `CCc1csc(C2CCCN(C(=O)c3ncccn3)C2)n1` (centres undefined), the cytotoxicity at 70.5 h is -0.847%.
With `Nc1nc(CN2CCOC(Cn3cncn3)C2)nc2ccccc12` (centres undefined), the cytotoxicity at 70.5 h is -3.11%.
For `CCc1noc(C)c1C(=O)N1CCC(c2[nH]ncc2S(C)(=O)=O)C1` (centres undefined), the cytotoxicity at 70.5 h is -4.87%.
On to `O=S(=O)(C1CC1)N1CCc2ncnc(-c3ccncc3)c2CC1`, for which the cytotoxicity at 70.5 h was -0.987%.
Take `CC(=O)NC1CCCN(C(=O)CNc2cc(Cl)cc(Cl)c2)C1` (centres undefined): the cytotoxicity at 70.5 h was -5.65%.
In the case of `Cc1oc(C)c(C(=O)NS(=O)(=O)c2ccc3c(c2)OCCO3)c1Br`, the cytotoxicity at 70.5 h was -17.9%.
`CC(C)(CNc1cn[nH]c(=O)c1Cl)c1ccc2c(c1)OCO2`: the cytotoxicity at 70.5 h is -13.4%.
As to `Cc1[nH]ncc1CCCNC(=O)N1CCC(CC(N)=O)CC1`, the cytotoxicity at 70.5 h is -0.905%.
As for `CN(C(=O)Cc1cccs1)C1CCN(c2ccccn2)CC1`, the cytotoxicity at 70.5 h was -5.49%.
Take `COc1ccccc1CC(=O)NS(=O)(=O)c1ccc(C(N)=O)cc1`: the cytotoxicity at 70.5 h was -12.7%.
In the case of `CC(Cn1ccnc1)NC(=O)N(C)Cc1ccsc1` (centres undefined), the cytotoxicity at 70.5 h was -27.1%.
Take `Cn1ccc(C(=O)NC2CCC23CCN(C(=O)c2ccnnc2)CC3)c1` (centres undefined): the cytotoxicity at 70.5 h came out at 27.1%.
Regarding `COc1cccc(-c2nc(CNC(C)Cn3cccn3)cs2)c1` (centres undefined), the cytotoxicity at 70.5 h came out at 12.8%.
As for `O=C(N1CCCC1)N1C[C@H]2CC[C@@H]1CN(Cc1ccncc1)C2`, the cytotoxicity at 70.5 h was determined as 17.1%.
Then `O=C(Cn1ccc2ccccc21)NCc1cc(N2CCOCC2)ncn1`, with -1.81%; and `CCC(CNC(=O)CNC(C)=O)Oc1cccc(F)c1` (centres undefined), with -9.82%; and `c1cnc(NCc2noc3c2CN(c2cnccn2)CC3)nc1`, with -3.45%.
On to `CSc1ccccc1C(=O)N1C[C@@H](N(C)C)[C@H](c2ccc(C)cc2)C1`, for which the cytotoxicity at 70.5 h is -1.92%.
As for `COc1ccc(OC)c(C(=O)Nc2cccnc2-n2cncn2)c1`, the cytotoxicity at 70.5 h was -10.9%.
Then `NC(=O)CN1CCN(S(=O)(=O)N2CCCC2c2ccco2)CC1` (centres undefined), with -3.32%.
The same measure for `CCC(C)(C)n1nnnc1C(c1cccs1)N1CCc2ccccc21` (centres undefined): -1.64%; for `COC(=O)c1ccc(OC)c(Cn2cc(Br)cn2)c1`: -16.7%; for `CCOc1ncnc2c1CCN(C(=O)c1cnccn1)CC2`: 1.88%.
In the case of `CCCN1CCCn2c(nc(CNC(=O)c3nccn3C)cc2=O)C1`, the cytotoxicity at 70.5 h is -9.48%.
On to `CC(O)CN1CCN(C(=O)c2ccnc(N(C)C)c2)CC1` (centres undefined), for which the cytotoxicity at 70.5 h worked out at 14.1%.
`O=S1(=O)NCC2(CCNCC2)COc2ccccc21`: the cytotoxicity at 70.5 h was -2.63%.

The values are drawn from ChEMBL document CHEMBL3507680, “University of Dundee, Gates Library screen for HepG2 cell viability”.
